# Where two headings read alike, the source gives them in different places.
# Legend:
# M. smegmatis ATCC 700084 = test: antimycobacterial MIC, broth dilution micromethod; format: cell-based; settings: Mycolicibacterium smegmatis, ATCC700084, 72 h, 3 days at 37 °C
# [1] = system: Mycobacterium avium subsp. paratuberculosis CIT03; test: antimycobacterial MIC, MB broth, alamarBlue; format: cell-based; settings: 264 h, read-out: MIC MAP
# Procedure: The Mycobacterium avium subsp. paratuberculosis CIT03 strain was grown in the Middlebrook (MB) broth, supplemented with the Oleic-Albumin-Dextrose-Catalase Supplement (OADC, Becton Dickinson, Oxford, UK) and the mycobactin J (2 μg/mL). The commercially available siderophore mycobactin J reduced the incubation period of M. avium subsp. paratuberculosis in a complex medium when compared to the medium containing the mycobactin P as a growth factor.
# The identification of the isolate was performed using biochemical and molecular protocols. At a log phase growth, a culture sample (10 mL) was centrifuged at 15,000 rpm/20 min using a bench top centrifuge (Model CR 4-12, Jouan Inc., London, UK). Following removal of the supernatant, the pellet was washed in fresh Middlebrook 7H9GC broth and re-suspended in fresh supplemented MB broth (10 mL). The turbidity was adjusted to match the McFarland standard No. 1 containing approximately 3.0 × 10^8 Colony Forming Units (CFU) with the MB broth. Further 1:20 dilution of the culture was performed in the MB broth. The susceptibility of given mycobacterial species was investigated in a 96-well plate format. In those experiments, sterile deionised water (300 μL) was added to all outer-perimeter wells of the plates to minimize an evaporation of the medium in the test wells during the incubation process. Each evaluated compound (100 μL) was incubated with the mycobacterial species (100 μL). The dilutions of a particular compound were prepared in triplicate. For all inspected derivatives, final concentrations ranged from 1000 μg/mL to 60 μg/mL. All compounds were prepared in dimethyl sulfoxide (DMSO; Sigma-Aldrich, Irvine, UK) and subsequent dilutions were made in the supplemented MB broth. The plates were sealed with a parafilm and incubated at 37 °C for 11 days. Following the incubation, a 10% addition of a water‑soluble dye, the alamarBlue reagent (AbD Serotec, Kidlington, UK), was mixed into each well. Absorbance readings at 570 nm and 600 nm were taken, initially for background subtraction and after 24 h re-incubation. The subtraction is necessary for strongly coloured compounds, where the colour may interfere with the interpretation of any colour change. For non-interfering compounds, a blue colour in a well was interpreted as an absence of a growth and a pink colour was scored as a growth.
# The minimum inhibitory concentration (MIC) was defined as the lowest concentration of the compound at which no visible bacterial growth was observed. In other words, the MIC was the lowest concentration that prevented a visual colour change from blue to pink. The MIC value has been routinely and widely used in bacterial assays and it has been a standard detection limit according to the Clinical and Laboratory Standards Institute. The clinically used antimycobacterial drugs INH and RIF were applied as the standards.
# [2] = design: method as in PMID 16209439, PMID 16209439, doi:10.2478/s11696-006-0007-y; settings: octan-1-ol/phosphate buffer (pH = 7.4); cited from earlier work
# [3] = design: method as in PMID 16209439, PMID 16209439; settings: potentiometric titration; cited from earlier work
# M. kansasii DSM 44162 = test: antimycobacterial MIC, broth dilution micromethod; format: cell-based; settings: Mycobacterium kansasii, DSM44162, 168 h, 7 days at 37 °C
# M. marinum CAMP 5644 = test: antimycobacterial MIC, broth dilution micromethod; format: cell-based; settings: Mycobacterium marinum, CAMP5644, 504 h, 21 days at 28 °C
# [4] = system: Enterococcus faecalis ATCC 29212; test: antibacterial MIC, microtitration broth method; format: cell-based; settings: 37 °C
# Procedure: (§1) Prior to the testing, each strain was transferred into a nutrient agar (Oxoid Limited, Basingstoke, UK), which was enriched with 5% defibrinated bovine blood.
# (§2) The MICs were determined by the microtitration broth method in the cation-adjusted Mueller-Hinton broth (Becton Dickinson, Oxford, UK) according to an international interdisciplinary Clinical Laboratory Standard Institute guidelines.
# (§3) The checkerboard was inoculated by the bacterial inocula, which were prepared in a phosphate buffered saline solution with the pH = 7.2–7.3 to simulate physiological pH. The final concentration of each inoculum in the final volume of 100 μL in the wells was approximately 7.5 × 10^6 CFU/mL. Drug-free controls, sterility controls and the controls consisted of the broth with DMSO were included. The determination of the results was performed visually after 24 h of static incubation in the darkness at 37 °C in an aerobic atmosphere.
# (§4) To ensure reproducibility, each antibacterial MIC assay was performed triplicate on separate occasions.
# [5] = system: Escherichia coli ATCC 25922; test: antibacterial MIC, microtitration broth method; format: cell-based; settings: 37 °C
# Procedure: as §1, §2, §3, §4
# [6] = system: methicillin-resistant Staphylococcus aureus 63718; test: antibacterial MIC, microtitration broth method; format: cell-based; settings: MRSA, 37 °C
# Procedure: as §1, §2, §3, §4
# [7] = system: Staphylococcus aureus ATCC 29213; test: antibacterial MIC, microtitration broth method; format: cell-based; settings: 37 °C
# Procedure: as §1, §2, §3, §4
# [8] = system: Candida parapsilosis CCM 8260; test: candidacidal MIC, microdilution method; format: cell-based; settings: Lodderomyces parapsilosis, CCM8260, 48 h, 37 °C
# Procedure: (§5) In order to provide a look into the potential usefulness of the derivatives 5a–l as the candidates for a development of anti-yeast (candidacidal) agents, they were in vitro tested against Candida albicans CCM 8261 (CA 8261), C. krusei CCM 8271 (CK 8271) and C. parapsilosis CCM 8260 (CP 8260). The yeasts were obtained from the Czech Collection of Microorganisms (Masaryk University, Faculty of Science, Brno, Czech Republic). They were grown and kept on Sabouraud agar (Oxoid Limited, Basingstoke, UK).
# (§6) For the screening, the microdilution method according to the Antimicrobial Susceptibility Testing Protocols was applied. The inoculum was prepared from the cultures grown on Sabouraud agar. With the sterile solution of NaCl, the inoculum was prepared to the 0.5 McFarland units using the Densi-La-Meter densitometer (LIAP, Riga, Latvia) and diluted a thousand‑fold with the Roswell Park Memorial Institute (RPMI) 1640 medium (Sigma-Aldrich, Darmstadt, Germany). Prepared suspension was used for an inoculation of microtitre plates. Final concentration in wells ranged from 5.0 × 10^2 CFU/mL to 2.5 × 10^3 CFU/mL. […] For the determination of the MICs, the stock solutions of all the tested compounds were diluted in the microtitre checkerboard to the final concentration varying from 128 μg/mL to 0.125 μg/mL. Drug-free control, sterility control and the control consisted of a medium and DMSO alone were included. Inoculated microtitre plates were incubated for 48 h in the darkness at 37 °C in an aerobic atmosphere. The results were estimated against static light.
# (§7) The MIC was defined as the lowest concentration of the tested compound at which no visible growth was observed. To ensure reproducibility of the results, each candidacidal MIC assay was performed triplicate on separate occasions. It was important to note that all the MICs from the in vitro antimicrobial screening were expressed in μg/mL units and were available in Tables S3 and S4 (Supplementary Materials).
# [9] = system: Candida albicans CCM 8261; test: candidacidal MIC, microdilution method; format: cell-based; settings: Candida albicans, CCM8261, 48 h, 37 °C
# Procedure: as §5, §6, §7
# Candida krusei CCM 8271 = test: candidacidal MIC, microdilution method; format: cell-based; settings: Pichia kudriavzevii, CCM8271, 48 h, 37 °C
# Procedure: as §5, §6, §7
Compound,MIC (M. smegmatis ATCC 700084),MIC (M. smegmatis ATCC 700084; Table S3),"MIC ([1]; 37 °C, 11 days)",MIC [1],log Pexp [2],pKa [3],MIC (M. kansasii DSM 44162),MIC (M. kansasii DSM 44162; Table S3),MIC (M. marinum CAMP 5644),MIC (M. marinum CAMP 5644; Table S3),"MIC ([4]; ATCC29212, 24 h)","MIC ([4]; ATCC29212, Table S4, 24 h)","MIC ([5]; ATCC25922, 24 h)","MIC ([5]; ATCC25922, Table S4, 24 h)",MIC ([6]; 24 h),"MIC ([6]; Table S4, 24 h)","MIC ([7]; ATCC29213, 24 h)","MIC ([7]; ATCC29213, Table S4, 24 h)",MIC [8],MIC ([8]; Table S4),also measured
CCOc1ccccc1NC(=O)OCC(O)CN1CCN(c2cccc(C(F)(F)F)c2)CC1 (centres unmarked) [Compound 5b],508 µM,256 µg/mL,1980 µM,1000 µg/mL,3.60,6.00,127 µM,64 µg/mL,127 µM,64 µg/mL,> 508 µM,> 256 µg/mL,> 508 µM,> 256 µg/mL,> 508 µM,> 256 µg/mL,> 508 µM,> 256 µg/mL,> 254 µM,> 128 µg/mL,MIC [9]: > 254 µM; MIC ([9]; Table S4): > 128 µg/mL; MIC (Candida krusei CCM 8271): > 254 µM; MIC (Candida krusei CCM 8271; Table S4): > 128 µg/mL
COc1cccc(NC(=O)OCC(O)CN2CCN(c3cccc(C(F)(F)F)c3)CC2)c1 (centres unmarked) [Compound 5c],523 µM,256 µg/mL,1020 µM,500 µg/mL,3.61,5.73,131 µM,64 µg/mL,131 µM,64 µg/mL,> 523 µM,> 256 µg/mL,> 523 µM,> 256 µg/mL,> 523 µM,> 256 µg/mL,> 523 µM,> 256 µg/mL,> 261 µM,> 128 µg/mL,MIC [9]: > 261 µM; MIC ([9]; Table S4): > 128 µg/mL; MIC (Candida krusei CCM 8271): > 261 µM; MIC (Candida krusei CCM 8271; Table S4): > 128 µg/mL
"NNC(=O)c1ccncc1 [INH, isoniazid, reference compound]",117 µM,16.1 µg/mL,1820 µM,250 µg/mL,–,–,–,–,467 µM,64 µg/mL,–,–,–,–,–,–,–,–,–,–,–
"CO[C@H]1/C=C/O[C@@]2(C)Oc3c(C)c(O)c4c(O)c(c(/C=N/N5CCN(C)CC5)c(O)c4c3C2=O)NC(=O)/C(C)=C\C=C\[C@H](C)[C@H](O)[C@@H](C)[C@@H](O)[C@@H](C)[C@H](OC(C)=O)[C@@H]1C [RIF, rifampicin, reference compound]",19.4 µM,0.125 µg/mL,109 µM,60 µg/mL,–,–,0.15 µM,0.5 µg/mL,2.43 µM,0.25 µg/mL,–,–,–,–,–,–,–,–,–,–,–
